From ChEMBL document CHEMBL6177971, “Iterative Optimization Yields Stapled Peptides with Superior Pharmacokinetics and Potency for Renal Fibrosis Treatment” (J Med Chem, 2025)
Calls of active or inactive are those of the source. The calls are words filed in the database; no cut-off is given here. Where a SMILES comes first, the peptide text is derived from it.

Columns and labels:
NIH3T3 [1] = experiment: Cytotoxicity against mouse NIH3T3 cells assessed as inhibition of cell viability up to 160 uM incubated for 48 hrs by CCK8 assay; assay type: toxicity, cell-based; conditions: nih3t3, 48 h
NIH3T3 [2] = experiment: Inhibition of TGF-beta1-induced EMT in mouse NIH3T3 cells assessed as decrease in fibronectin level at 10 uM incubated for 48 hrs by Western blot analysis; assay type: functional, cell-based
NIH3T3 [3] = experiment: Inhibition of TGF-beta1-induced EMT in mouse NIH3T3 cells assessed as decrease in alpha-SMA level at 10 uM incubated for 48 hrs by Western blot analysis; assay type: functional, cell-based
[4] = Half life of compound; assay type: physicochemical

Molecule	half-life [4] [h]	Activity (NIH3T3 [1])	inhibition (NIH3T3 [2])	inhibition (NIH3T3 [3])
C[C@@H](NC(=O)[C@H](CCC(N)=O)NC(=O)[C@@H]1CCCN1C(=O)[C@@H](CC(N)=O)NC(=O)[C@H](CC(N)=O)NC(=O)[C@H](Cc1c[nH]cn1)NC(=O)[C@H](N)CC(=O)O)C(=O)N[C@@H](CCCNC(=N)N)C(N)=O	101	Non-toxic	Active	Active
H-HNNPQIRD-OH	0.57	Non-toxic	–	–
C=CCCC[C@](C)(NC(=O)[C@H](Cc1c[nH]cn1)NC(=O)[C@@H](CC(=O)O)NC(=O)CCCCCCCCCCCCCCCCC)C(=O)N[C@H](CC(N)=O)C(=O)N1CCC[C@H]1C(=O)N[C@@H](CCC(N)=O)C(=O)N[C@H](C)C(=O)N[C@@H](CCCNC(=N)N)C(N)=O	–	Toxic	Active	Active
CC[C@H](C)[C@H](NC(=O)[C@H](Cc1c[nH]cn1)NC(=O)[C@H](N)CC(=O)O)C(=O)N[C@H](CC(N)=O)C(=O)N1CCC[C@H]1C(=O)N[C@@H](CCC(N)=O)C(=O)N[C@H](C)C(=O)N[C@@H](CCCNC(=N)N)C(N)=O	125	Non-toxic	Active	Active
C=CCCC[C@](C)(NC(=O)[C@H](Cc1c[nH]cn1)NC(=O)[C@@H](CC(=O)O)NC(=O)CCCCCCCCCCCCCCC)C(=O)N[C@H](CC(N)=O)C(=O)N1CCC[C@H]1C(=O)N[C@@H](CCC(N)=O)C(=O)N[C@H](C)C(=O)N[C@@H](CCCNC(=N)N)C(N)=O	–	Toxic	Active	Active
C=CCCC[C@](C)(NC(=O)[C@H](Cc1c[nH]cn1)NC(=O)[C@@H](CC(=O)O)NC(=O)CCCCCCCCCCCCC)C(=O)N[C@H](CC(N)=O)C(=O)N1CCC[C@H]1C(=O)N[C@@H](CCC(N)=O)C(=O)N[C@H](C)C(=O)N[C@@H](CCCNC(=N)N)C(N)=O	–	Toxic	Active	Active
C=CCCC[C@](C)(NC(=O)[C@H](Cc1c[nH]cn1)NC(=O)[C@@H](CC(=O)O)NC(=O)CCCCCCCCCCC)C(=O)N[C@H](CC(N)=O)C(=O)N1CCC[C@H]1C(=O)N[C@@H](CCC(N)=O)C(=O)N[C@H](C)C(=O)N[C@@H](CCCNC(=N)N)C(N)=O	–	Toxic	Active	Active

The next lines start with results.

half-life [4] [h]	Molecule	Activity (NIH3T3 [1])	inhibition (NIH3T3 [2])	inhibition (NIH3T3 [3])
129	C=CCCC[C@](C)(NC(=O)[C@H](Cc1c[nH]cn1)NC(=O)[C@H](N)CC(=O)O)C(=O)N[C@H](CC(N)=O)C(=O)N1CCC[C@H]1C(=O)N[C@@H](CCC(N)=O)C(=O)N[C@H](C)C(=O)N[C@@H](CCCNC(=N)N)C(N)=O	Non-toxic	Active	Active
272	C[C@@H](NC(=O)[C@H](CCC(N)=O)NC(=O)[C@@H]1CCCN1C(=O)[C@@H](CC(N)=O)NC(=O)[C@H](CCCCN)NC(=O)[C@H](Cc1c[nH]cn1)NC(=O)[C@H](N)CC(=O)O)C(=O)N[C@@H](CCCNC(=N)N)C(N)=O	Non-toxic	inactive	inactive
424	C[C@@H](NC(=O)[C@H](CCC(N)=O)NC(=O)[C@@H]1CCCN1C(=O)[C@@H](CC(N)=O)NC(=O)[C@H](CCC(N)=O)NC(=O)[C@H](Cc1c[nH]cn1)NC(=O)[C@H](N)CC(=O)O)C(=O)N[C@@H](CCCNC(=N)N)C(N)=O	Non-toxic	Active	Active
9.97	CC[C@H](C)[C@@H]1NC(=O)[C@H](CCC(N)=O)NC(=O)[C@@H]2CCCN2C(=O)[C@H](CC(N)=O)NC(=O)[C@H](CC(N)=O)NC(=O)[C@H](Cc2c[nH]cn2)NC(=O)[C@H](CC(=O)O)NC(=O)[C@H](CCCNC(=N)N)NC1=O (cyclo(DHNNPQIR))	Non-toxic	Active	Active
